{
  "source": "patent US8334268B2",
  "about": "“Insecticidal active ingredient combinations (formononetins + insecticides)” (priority 2006, dated 2012)",
  "tested_on": "Meloidogyne incognita",
  "experiment": "Meloidogyne incognita test (MELGIN), gall formation on lettuce roots",
  "assay_type": "in vivo",
  "conditions": "0.5 mg ai/seed, lettuce seed dressing; nematicidal action by formation of galls; 100% = no galls",
  "description": "To produce a suitable preparation of active compound, 1 part by weight of active compound is mixed with the stated amounts of solvent and emulsifier, and the concentrate is diluted with water to the desired concentration.\nLettuce seeds are dressed with the desired amount of formononetin. Vessels are filled with soil infected with mycorrhiza, active compound solution, Meloidogyne incognita egg/larvae suspension and the treated lettuce seeds. The lettuce seeds germinate and the plants develop. On the roots, galls are formed.\nAfter the desired period of time, the nematicidal action is determined in % by the formation of galls. 100% means that no galls have been found; 0% means that the number of galls on the treated plants corresponds to that of the untreated control.",
  "data": [
    {"smiles": "COc1ccc(-c2coc3cc(O)ccc3c2=O)cc1", "note": "[Formononetin of the formula (I), formononetin]", "values": [
      {"measurement": "Effect in % after 21 d", "value": 3.3, "unit": "%"}
    ]}
  ]
}
